Target: KCNQ2/KCNQ3 potassium channel current expressed in mammalian cells (Homo sapiens, UniProt O43525+O43526)
Assay: KCNQ2/KCNQ3 current enhancement, automated parallel patch-clamp (PatchXpress 7000A)
Type: cell-based
Details: mean±s.e.m
Description: The objective of this study was to examine the in vitro effects of the Example compounds on the KCNQ2/KCNQ3 potassium channel current expressed in mammalian cells using the PatchXpress 7000A (Molecular Devices), an automatic parallel patch-clamp system. The test compounds were evaluated at 30 or 10 μM (n≦2). The duration of exposure to the test compound was 5 minutes. […] The results for a positive control, flupirtine (Table 2) applied to naïve cells in the same study confirm the sensitivity of the test system to detect KCNQ2/KCNQ3 current enhancement.
All experiments were performed at ambient temperature. Each cell acted as its own control.
A 30 μM or 10 μM concentration of test compound was applied via disposable polyethylene micropipette tips to naïve cells. Each solution exchange, performed in quadruplicate, consisted of aspiration and replacement of 45 μL of the total 50 μL volume of the extracellular well of the Sea/chip16.
Vehicle was applied to naïve cells (n≦2), for a 5 minute exposure interval.
Each solution exchange, performed in quadruplicate, consisted of aspiration and replacement of 45 μL of the total 50 μL volume of the extracellular well of the Sea/chip16. After vehicle application, the positive control was applied in the same manner, to verify sensitivity of the assay.
In preparation for a recording session, intracellular solution was loaded into the intracellular compartments of the Sea/chip16 planar electrode. Cell suspension was pipetted into the extracellular compartments of the Sea/chip16 planar electrode. After establishment of the whole-cell configuration, membrane currents were recorded using dual-channel patch-clamp amplifiers in the PatchXpress® system. Before digitization, the current records were low-pass filtered at one-fifth of the sampling frequency.
Data acquisition and analysis were performed using the pCLAMP suite of programs (Axon Instruments, Union City, Calif.). The steady-state current before and after test article application was used to calculate the percentage current enhancement at each concentration. The results obtained from different cells were averaged and presented as mean±s.e.m (see Tables 1 and 2).

[1] = 30 μM test compound, 5 minutes exposure, ambient temperature

O=S(=O)(Cc1ccccc1Nc1c(Cl)cccc1Cl)NCCOCCO [Example 1, 1-[2-(2,6-Dichlorophenylamino)phenyl]-N-[2-(2-hydroxyethoxy)ethyl]-methanesulfonamide]
Mean % Enhancement of KCNQ2/KCNQ3 [1]: 32.4 ± 18%

O=S(=O)(NCCO)c1ccccc1Nc1c(Cl)cc(Cl)cc1Cl [Example 8, N-(2-Hydroxyethyl)-2-(2,4,6-trichlorophenylamino)-benzenesulfonamide]
Mean % Enhancement of KCNQ2/KCNQ3 [1]: 41.2 ± 9%

O=S(=O)(NCCO)c1ccccc1Nc1c(Cl)cccc1Cl [Example 9, N-(2-Hydroxyethyl)-2-(2,6-dichlorophenylamino)-benzenesulfonamide]
Mean % Enhancement of KCNQ2/KCNQ3 [1]: 56.8 ± 9%

O=S(=O)(NCCO)c1cccc(Nc2c(Cl)cc(Cl)cc2Cl)c1 [Example 16, N-(2-Hydroxyethyl)-3-(2,4,6-trichlorophenylamino)-benzenesulfonamide]
Mean % Enhancement of KCNQ2/KCNQ3 [1]: 87.4 ± 14%

O=S(=O)(NCCO)c1cc(Nc2c(Cl)cc(Cl)cc2Cl)ccc1Cl [Example 18, 2-Chloro-N-(2-hydroxyethyl)-5-(2,4,6-trichlorophenylamino)benzensulfonamide]
Mean % Enhancement of KCNQ2/KCNQ3 (10 μM test compound, 5 minutes exposure, ambient temperature): 18.6 ± 4%

CCOC(=O)Nc1ccc(NCc2ccc(F)cc2)nc1N [Flupirtine, flupirtine, reference compound]
Mean % Enhancement of KCNQ2/KCNQ3 (positive control, 10 μM, applied after vehicle to naïve cells): 127 ± 16%
